This experiment concerns the target T1, Alpha-1A/Alpha-1B/Alpha-1D adrenergic receptor (Rattus norvegicus, UniProt P15823+P43140+P23944).
T1 sequence (P15823 whole entry): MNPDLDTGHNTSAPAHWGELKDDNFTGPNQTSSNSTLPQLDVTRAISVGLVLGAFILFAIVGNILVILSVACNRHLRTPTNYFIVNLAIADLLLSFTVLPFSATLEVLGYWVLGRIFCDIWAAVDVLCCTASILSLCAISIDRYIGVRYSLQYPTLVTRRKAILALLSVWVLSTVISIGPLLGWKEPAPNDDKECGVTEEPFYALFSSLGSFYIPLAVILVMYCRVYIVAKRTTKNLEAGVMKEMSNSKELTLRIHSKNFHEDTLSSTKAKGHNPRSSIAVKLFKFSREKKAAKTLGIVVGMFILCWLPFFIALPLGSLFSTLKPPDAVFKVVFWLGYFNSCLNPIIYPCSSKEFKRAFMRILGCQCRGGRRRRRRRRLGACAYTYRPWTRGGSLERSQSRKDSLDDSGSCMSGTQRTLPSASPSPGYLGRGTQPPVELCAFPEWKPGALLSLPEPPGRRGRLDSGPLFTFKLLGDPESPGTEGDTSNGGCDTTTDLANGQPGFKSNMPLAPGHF
T1 sequence (P43140 whole entry): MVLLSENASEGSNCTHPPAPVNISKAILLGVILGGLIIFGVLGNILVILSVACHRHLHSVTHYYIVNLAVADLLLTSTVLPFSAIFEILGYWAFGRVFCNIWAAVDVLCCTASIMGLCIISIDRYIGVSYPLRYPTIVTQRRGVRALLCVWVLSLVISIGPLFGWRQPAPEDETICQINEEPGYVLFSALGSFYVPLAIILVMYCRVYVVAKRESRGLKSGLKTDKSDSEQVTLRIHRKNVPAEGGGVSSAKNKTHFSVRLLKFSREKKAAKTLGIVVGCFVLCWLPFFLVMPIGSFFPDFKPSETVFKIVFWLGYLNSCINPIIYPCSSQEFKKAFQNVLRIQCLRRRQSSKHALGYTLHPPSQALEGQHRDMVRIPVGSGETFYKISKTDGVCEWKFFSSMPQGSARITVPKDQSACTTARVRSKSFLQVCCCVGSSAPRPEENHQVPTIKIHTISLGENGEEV
T1 sequence (P23944 whole entry): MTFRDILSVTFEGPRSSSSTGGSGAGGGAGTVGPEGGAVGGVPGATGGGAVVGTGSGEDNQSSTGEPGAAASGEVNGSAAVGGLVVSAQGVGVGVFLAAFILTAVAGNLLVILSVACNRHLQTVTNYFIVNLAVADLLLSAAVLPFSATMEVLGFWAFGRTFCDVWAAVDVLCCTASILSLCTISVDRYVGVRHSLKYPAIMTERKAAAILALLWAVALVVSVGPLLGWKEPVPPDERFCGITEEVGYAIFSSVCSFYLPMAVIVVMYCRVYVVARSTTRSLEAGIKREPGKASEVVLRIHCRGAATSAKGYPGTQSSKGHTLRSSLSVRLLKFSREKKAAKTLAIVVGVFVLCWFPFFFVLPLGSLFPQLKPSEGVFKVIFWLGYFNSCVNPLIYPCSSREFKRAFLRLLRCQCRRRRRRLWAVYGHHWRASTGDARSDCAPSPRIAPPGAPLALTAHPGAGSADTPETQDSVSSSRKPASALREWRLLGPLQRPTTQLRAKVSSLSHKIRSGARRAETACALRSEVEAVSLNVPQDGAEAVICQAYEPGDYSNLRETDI
As to the kind of experiment: Binding affinity towards Alpha-1 adrenergic receptor in rat cerebral cortex membranes using [3H]prazosin as radioligand.

Here are results for one compound from BindingDB's records for doi:10.1016/s0960-894x(03)00160-4 (Universidad Complutense, 2003).

Broadly, the Ki is a dissociation constant, usually derived from enzyme kinetics or from competition with a known ligand. High values mean a looser hold on the target, low ones a stronger hold on the target. Compound `O=c1n(CN2CCN(c3cccc4ccccc34)CC2)c(O)c2n1CCC2` [2-(4-Naphthalen-1-yl-piperazin-1-ylmethyl)-tetrahydro-pyrrolo[1,2-c]imidazole-1,3-dione] displayed an inhibition constant (Ki) greater than 1000 nM.
